Experimental data published in patent US20220313656A1, “NEW CLASS OF ANTIBIOTICS HAVING LOW MIC-VALUES TOWARDS DIFFERENT STRAINS OF BACTERIA” (priority 2019, published 2022).

Tests used:
[1] = system: S. aureus USA300; assay: MIC, serial dilution method (CLSI); format: cell-based, Staphylococcus aureus; details: Staphylococcus aureus, USA300, 24 h; read-out: MIC
Method in brief: (§1)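 Each determination was run twice. Bacteria, diluted 1:100 in Müller Hinton broth, were exposed to compound for 24 hours at 37° C without agitation, and the lowest concentration free of visible growth was recorded.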

[2] = system: S. aureus CC398; assay: MIC, serial dilution method (CLSI); format: cell-based, Staphylococcus aureus; details: Staphylococcus aureus, MRSA, 24 h; read-out: MIC
Method in brief: as §1

[3] = system: E. faecalis; assay: MIC, serial dilution method (CLSI); format: cell-based, Enterococcus faecalis; details: Enterococcus faecalis, 24 h; read-out: MIC
Method in brief: as §1

[4] = system: Escherichia coli E2; assay: MIC, serial dilution method (CLSI); note: values in mg/L; format: cell-based; details: E. coli E2, ESBL; duplicates a/b
Description: (§2) The MIC for each compound for each bacteria strain was determined by the serial dilution method following the CLSI guidelines (CLSI Clinical and Laboratory Standards Institute: Performance Standards for Antimicrobial Susceptibility Testing: […] M100-S25. Wayne, Pa., USA; 2015.) All compounds were diluted in autoclaved H2O and stored at 4° C. […] Bacterial inoculums were prepared by inoculating 9 ml of H2O with bacterial colonies from agar plate (Oxoid, Roskilde Denmark) supplemented with bovine blood to a final yield a final density of 10^8 colony forming unit (CFU)/mL using a Sensititre™ Nephelometer (Thermo Scientific, Roskilde, Denmark). These inoculums were each in diluted 1:100 in Müller Hinton (MH) broth (Sigma, Copenhagen, Denmark). From the diluted inoculums 100 μl was transferred to each well in a 96-well plate and mixed with the compound to be MIC determined. The plate was incubated for 24 hours at 37° C. (without shaking). The MIC value was determined as the lowest concentration in which no bacterial growth could be visually detected. All MIC determinations were done in duplicates. […] Since all derivatives are new, no control strains (with reference MIC values) were available.

[5] = system: E. coli APEC O2; assay: MIC, serial dilution method (CLSI); format: cell-based, Escherichia coli; details: Escherichia coli, APECO2, 24 h; read-out: MIC
Method in brief: as §1

[6] = system: Escherichia coli ESBL19; assay: MIC, serial dilution method (CLSI); note: values in mg/L; format: cell-based; details: E. coli ESBL19, Tetracycline resistant; duplicates a/b
Method in brief: as §1

[7] = system: Escherichia coli ESBL37; assay: MIC, serial dilution method (CLSI); note: values in mg/L; format: cell-based; details: E. coli ESBL37, Tetracycline resistant; duplicates a/b
Method in brief: as §1

[8] = system: Listeria monocytogenes; assay: MIC, serial dilution method (CLSI); format: cell-based; details: 24 h, read-out: MIC
Method in brief: as §1

[9] = system: Escherichia coli E38; assay: MIC, serial dilution method (CLSI); note: values in mg/L; format: cell-based; details: E. coli E38, ESBL; duplicates a/b
Method in brief: as §1

[10] = system: Escherichia coli E5; assay: MIC, serial dilution method (CLSI); note: values in mg/L; format: cell-based; details: E. coli E5, ESBL; duplicates a/b
Method in brief: as §1

[11] = system: Escherichia coli ESBL46; assay: MIC, serial dilution method (CLSI); note: values in mg/L; format: cell-based; details: E. coli ESBL46, Tetracycline resistant; duplicates a/b
Method in brief: as §1

[12] = system: Escherichia coli ESBL10; assay: MIC, serial dilution method (CLSI); note: values in mg/L; format: cell-based; details: E. coli ESBL10, Tetracycline resistant; duplicates a/b
Method in brief: as §1

[13] = system: Escherichia coli E24; assay: MIC, serial dilution method (CLSI); note: values in mg/L; format: cell-based; details: E. coli E24, ESBL; duplicates a/b
Method in brief: as §1

[14] = system: Escherichia coli E4; assay: MIC, serial dilution method (CLSI); note: values in mg/L; format: cell-based; details: E. coli E4, ESBL; duplicates a/b
Method in brief: as §1

[15] = system: Escherichia coli ESBL1; assay: MIC, serial dilution method (CLSI); note: values in mg/L; format: cell-based; details: E. coli ESBL1, Tetracycline resistant; duplicates a/b
Method in brief: as §1

[16] = system: Streptococcus equi; assay: MIC, serial dilution method (CLSI); format: cell-based; details: 24 h, read-out: MIC
Method in brief: as §1

[17] = system: Salmonella enteritidis; assay: MIC, serial dilution method (CLSI); format: cell-based; details: Salmonella enterica, ENTERITIDIS, 24 h; read-out: MIC
Method in brief: as §1

[18] = system: Bacillus cereus; assay: MIC, serial dilution method (CLSI); format: cell-based; details: 24 h, read-out: MIC
Method in brief: as §1

[19] = system: Escherichia coli E6; assay: MIC, serial dilution method (CLSI); note: values in mg/L; format: cell-based; details: E. coli E6, ESBL; duplicates a/b
Method in brief: as §1

[20] = system: Escherichia coli ESBL28; assay: MIC, serial dilution method (CLSI); note: values in mg/L; format: cell-based; details: E. coli ESBL28, Tetracycline resistant; duplicates a/b
Method in brief: as §1

[21] = system: Staphylococus pseudintermedius; assay: MIC, serial dilution method (CLSI); format: cell-based, Staphylococcus pseudintermedius; details: Staphylococcus pseudintermedius, 24 h; read-out: MIC
Method in brief: as §1

[22] = system: E. faecium; assay: MIC, serial dilution method (CLSI); format: cell-based, Enterococcus faecium; details: Enterococcus faecium, 24 h; read-out: MIC
Method in brief: as §1

[23] = Maximum Tolerated Dose (MTD) in mice; format: in vivo; details: for tolerated dose: mice, observed 4-6 hrs
Description: This experiment is conducted to assess in vivo toxicity of the compounds. […] The study was performed at Statens Serum Institute. The Maximum Tolerated Dose (MTD) was investigated after intravenous (iv), intraperitonalt (ip) and peroral (po) dosing ranging from 5 mg/kg to 100 mg/kg.

[24] = system: Staphylococcus aureus MRSA 43484; assay: Murine superficial MRSA skin infection model, topical treatment; format: in vivo; details: for reduction of the bacterial loads compared to vehicle treatment: topical twice daily for 3 days, day 4, Balb/C mice; for efficacy in the MRSA skin infection model: formulations at 1% and 2%, compared to vehicle
Description: This experiment is conducted to assess the effect of topical treatment of the compounds against MRSA. Compound S43 was evaluated for efficacy against Staphylococcus aureus MRSA 43484 in an murine skin infection model.
Treatment was performed twice daily for 3 days and sampling of skin biopsies was performed the day after last treatment. Treatment with Fucidic acid was included as a positive control and treatment with vehicle was included as a negative control.
48 Balb/C female mice—18-22 g—Taconic, Denmark, Staphylococcus aureus MRSA43484, Test compound A at 1 and 2% formulations, Test compound B at 2% formulation, Fucidin, 0.9% saline (sterile, SSI), 0.9% saline/Triton-x (sterile, SSI), Sterile water (SSI), 5% Horse Blood Agar plates (SSI), MRSA Brilliance agar plates, Nurofen® Junior (20 mg/ml, Novartis), Zoletil mix/Torbugesic (SSI/QC-BIO), Dermal curette—Miltex 335710.
Approximately 1 hour before inoculation, mice were treated orally with 45 μl nurofen (20 mg ibuprofen/ml corresponding to approximately […]) as pain relief. The mice were anaesthetized with 0.15 ml s.c. of Zoletil mix. The fur was removed from a 2×3-cm area on the back of each mouse by use of an electric shaver. Next, a razor was used to remove all the hair and hereafter the outer most layer of the skin was scraped off with a dermal curette to obtain a 1 cm^2 superficial skin lesion. 10 μl inoculum containing approximately 10^7 CFU was spread on the lesion. After the applied inoculum had dried, the mouse was placed in the cage and kept in a warming cabinet until fully awake.
Topical treatment of was initiated the day after inoculation, Day 1. Mice were treated twice daily (9 a.m and 3 p.m.) for three days. A volume of 50 μl was spread on the inoculated skin area.
Colony counts in the skin lesions were determined on day 1 (start of treatment) and day 4 (the day after completed treatment). The mice were sacrificed day 1 and 4 according to Table 1. The affected skin area was removed by a pair of scissors and tweezers, and collected in a tube for Dispomixer with 1 ml saline. The skin sample was homogenized in a Dispomixer. Each sample was serial diluted in saline/Triton-x and 20-μl spots were applied on MRSA Brillince agar plates. All agar plates were incubated 20-48 hrs at 35° C.

[25] = system: Campylobacter jejuni; assay: MIC and MBC determination; format: cell-based; details: Clinical isolate
Description: (§3) MBC-value defines the antibiotic activities by the lowest concentration of the compound needed to kill at least 99.9% of the bacteria, also known as minimum bactericidal concentration (MBC) value.
as §2

[26] = system: Cutibacterium acnes; assay: MIC and MBC determination; format: cell-based; details: Multiresistant clinical isolate
Description: as §3, §2

[27] = system: Staphylococcus epidermidis; assay: MIC and MBC determination; format: cell-based; details: Multiresistant clinical isolate
Description: as §3, §2

[28] = Mutagenicity; details: data not shown
Description: The compound S43 was also assessed for mutagenicity.

## CCCCCCCCCCCC[N+](C)(C)CCCN1c2ccccc2Sc2ccc(Cl)cc21.[Br-] [Compound S7, N-(3-(2-chloro-10H-phenothiazin-10-yl)propyl)-N,N-dimethyldodecan-1-aminium bromide]
[1]
  MIC: 0.5 µg/mL
[2]
  MIC: 0.25 µg/mL
[3]
  MIC: 0.5 µg/mL
[4]
  MIC: 8/4
[5]
  MIC: 4 µg/mL
[6]
  MIC: 4/4
[7]
  MIC: 4/4
[8]
  MIC: 0.25 µg/mL
[9]
  MIC: 4/4
[10]
  MIC: 4/4
[11]
  MIC: 4/8
[12]
  MIC: 8/8
[13]
  MIC: 4/4
[14]
  MIC: 4/4
[15]
  MIC: 4/4
[16]
  MIC: 1 µg/mL
[17]
  MIC: 16 µg/mL
[18]
  MIC: 0.25 µg/mL
[19]
  MIC: 4/4
[20]
  MIC: 4/4
[21]
  MIC: 0.25 µg/mL
[22]
  MIC: 0.25 µg/mL

## CC(C)=CCCC(C)CC[N+](C)(C)CCCN1c2ccccc2Sc2ccccc21.Cc1ccc(S(=O)(=O)[O-])cc1 (stereo not shown) [Compound S43, N-(3-(10H-phenothiazin-10-yl)propyl)-N,N,3,7-tetramethyloct-6-en-1-aminium 4-methylbenzenesulfonate]
[1]
  MIC: 2 µg/mL
[23]; mice dosed twice po with 100 mg/kg
  tolerability: no signs of discomfort
[23]; ip dosing
  tolerated dose: up to 10 mg/kg
[23]; iv dosing
  tolerated dose: up to 10 mg/kg
[24]; 1% formulation
  reduction of the bacterial loads compared to vehicle treatment: 3.0 log10 CFU
[24]; 2% formulation
  reduction of the bacterial loads compared to vehicle treatment: 3.7 log10 CFU
[24]; 4-methylbenzenesulfonate
  efficacy in the MRSA skin infection model: significant reduction of the bacterial loads
[24]; listed as 43, 4-methylbenzenesulfonate
  efficacy in the MRSA skin infection model: highly effective
[25]
  MBC: 1 µg/mL
  MIC: 1 µg/mL
[26]
  MBC: 1 µg/mL
  MIC: 1 µg/mL
[27]
  MBC: 2 µg/mL
  MIC: 2 µg/mL
[28]
  mutagenic potential: did not show indications of mutagenic potential
